The subject of one assay is α1. As to the kind of experiment: α1. In kind it is binding.
The target of assay [1] is T1, dopamine autoreceptor (D2) (Rattus norvegicus, UniProt P61169).
T1 construct: homogenized rat striatal brain tissue is incubated with; from tissue; host or cells: rat striatal brain tissue, homogenized
Briefly: Affinity for the dopamine autoreceptor: 3H-quinpirole (Quin.) binding in homogenized rat striatal brain tissue.

For the next assay, the target named is T2, dopamine D-2 receptor (Rattus norvegicus, UniProt P61169).
T2 construct: homogenized limbic brain tissue is incubated with; from tissue; host or cells: limbic brain tissue, homogenized
T2 sequence (P61169 whole entry): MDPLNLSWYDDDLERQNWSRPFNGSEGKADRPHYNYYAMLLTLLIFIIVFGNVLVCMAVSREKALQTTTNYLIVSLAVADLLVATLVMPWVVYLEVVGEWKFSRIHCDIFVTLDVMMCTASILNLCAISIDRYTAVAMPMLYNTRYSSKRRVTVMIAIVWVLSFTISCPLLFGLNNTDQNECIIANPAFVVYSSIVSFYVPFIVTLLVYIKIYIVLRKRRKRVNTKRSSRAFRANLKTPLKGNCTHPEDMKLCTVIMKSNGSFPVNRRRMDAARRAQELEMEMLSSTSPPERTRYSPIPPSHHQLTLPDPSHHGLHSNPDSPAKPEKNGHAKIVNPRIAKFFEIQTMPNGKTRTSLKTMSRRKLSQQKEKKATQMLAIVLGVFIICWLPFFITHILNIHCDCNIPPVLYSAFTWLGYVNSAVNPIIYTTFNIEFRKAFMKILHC
As to the kind of experiment: Affinity for the dopamine D-2 receptor: 3H-spiroperidol (Spiper.) binding in homogenized limbic brain tissue. The following applies: read-out: IC50 D2 Spiper.

Another assay addresses T3, 5-HT1a (Homo sapiens, UniProt P08908).
T3 sequence (P08908 1-422): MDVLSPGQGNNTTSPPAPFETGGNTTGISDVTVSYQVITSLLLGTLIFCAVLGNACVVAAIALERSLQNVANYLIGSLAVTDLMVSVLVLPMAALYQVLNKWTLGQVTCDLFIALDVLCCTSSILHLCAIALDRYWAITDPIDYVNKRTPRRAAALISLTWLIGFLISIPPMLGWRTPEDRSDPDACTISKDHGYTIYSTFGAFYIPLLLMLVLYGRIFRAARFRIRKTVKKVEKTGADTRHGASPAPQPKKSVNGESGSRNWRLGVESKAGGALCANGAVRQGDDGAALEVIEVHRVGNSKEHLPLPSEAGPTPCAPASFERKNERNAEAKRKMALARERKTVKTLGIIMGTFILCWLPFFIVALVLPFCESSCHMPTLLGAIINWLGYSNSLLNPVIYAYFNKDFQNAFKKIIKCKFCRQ
As to the kind of experiment: 5-HT1a. Type of assay: binding.

What is called IC50 is the concentration that gives 50% inhibition.

T1 sequence (P61169 whole entry): as the sequence (P61169 whole entry) above

In the assay with α1, `c1ccc(CNCC2CCc3ccccc3O2)cc1` (centres unmarked) [reference compound] gave a 50% inhibitory concentration (IC50) of 630 nM.

With `CCCNCC1CCc2ccc(NS(C)(=O)=O)cc2O1` (centres unmarked) [Example 1c, N-(2-Propylaminomethyl-chroman-7-yl)-methanesulfonamide], the IC50 in assay [1] came to 184 nM; at dopamine D-2 receptor it was 4860 nM; on 5-HT1a, 218 nM; in the assay with α1, 1420 nM.

For the origin of these results see patent US5663194A, “Chroman-2-ylmethylamino derivatives” (priority 1996, dated 1997).
